Experimental data as given in patent publication US20240351986A1, “UREA COMPOUND CONTAINING 2-HETEROAROMATIC RING SUBSTITUTION, PREPARATION METHOD THEREFOR AND USE THEREOF” (SHANGHAI INSTITUTE OF MATERIA MEDICA, CHINESE ACADEMY OF …, priority 2021, published 2024).

Target: T1, Recombinant human CDK9/cyclin T1 (Homo sapiens, UniProt P50750)
T1 construct: purchased Carna bioscience 04-110
Test: CDK9 enzyme inhibitory activity (ADP-Glo kinase assay)
Assay type: biochemical
Conditions: CDK9 enzyme activity, average of two independent repeats; for inhibition at 0.01 µM: compound 10 nM, read-out: Inhibition rate at different concentrations (%) 10 nM; for inhibition at 0.1 µM: compound 100 nM, read-out: Inhibition rate at different concentrations (%) 100 nM
Procedure: Experimental method: Recombinant human CDK9/cyclin T1 (Carna bioscience, Cat #04-110) was diluted with dilution buffer (20 mM Tris HCl (pH 7.5), 0.02% Triton X-100, 0.01% BSA, 2 mM DTT, 0.5 mM Na3VO4, 10% Glycerol) to […], the substrates CDK7/9 tide (ThermoFisher, Cat #PV5090) and ATP (sigmaaldrich, Cat #A1852) were diluted with assay buffer (25 mM Tris HCl (pH7.5), 10 mM MgCl2, 0.5 mM EGTA (pH 8), 0.5 mM Na3VO4, 5 mMb-glycerol phosphate, 0.1% Triton X-100, 2.5 mM DTT) to final concentrations of 100 μM and […] respectively, aliquot and set aside. 2 μl of diluted recombinant human CDK9/cyclin T1, 1 μl of test compound, and 2 μl of diluted substrate CDK7/9 tide containing ATP were added to the 384-well plate. […] The positive control was the well in which enzyme and substrate were co-incubated, and the negative control was the well in which dilution buffer and substrate were co-incubated. The inhibition rate was calculated according to the following formula.

T1 sequence (P50750 whole entry): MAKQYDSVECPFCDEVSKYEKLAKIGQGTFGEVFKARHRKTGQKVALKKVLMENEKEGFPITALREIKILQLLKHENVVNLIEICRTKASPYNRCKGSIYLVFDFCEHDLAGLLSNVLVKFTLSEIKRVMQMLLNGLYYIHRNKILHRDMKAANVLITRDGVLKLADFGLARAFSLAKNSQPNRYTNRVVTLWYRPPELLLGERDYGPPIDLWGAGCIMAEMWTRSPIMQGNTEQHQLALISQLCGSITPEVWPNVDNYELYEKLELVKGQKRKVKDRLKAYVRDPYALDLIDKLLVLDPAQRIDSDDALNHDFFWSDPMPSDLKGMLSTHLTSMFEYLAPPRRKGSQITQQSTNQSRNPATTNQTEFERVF
T1 sequence (O60563 whole entry partner): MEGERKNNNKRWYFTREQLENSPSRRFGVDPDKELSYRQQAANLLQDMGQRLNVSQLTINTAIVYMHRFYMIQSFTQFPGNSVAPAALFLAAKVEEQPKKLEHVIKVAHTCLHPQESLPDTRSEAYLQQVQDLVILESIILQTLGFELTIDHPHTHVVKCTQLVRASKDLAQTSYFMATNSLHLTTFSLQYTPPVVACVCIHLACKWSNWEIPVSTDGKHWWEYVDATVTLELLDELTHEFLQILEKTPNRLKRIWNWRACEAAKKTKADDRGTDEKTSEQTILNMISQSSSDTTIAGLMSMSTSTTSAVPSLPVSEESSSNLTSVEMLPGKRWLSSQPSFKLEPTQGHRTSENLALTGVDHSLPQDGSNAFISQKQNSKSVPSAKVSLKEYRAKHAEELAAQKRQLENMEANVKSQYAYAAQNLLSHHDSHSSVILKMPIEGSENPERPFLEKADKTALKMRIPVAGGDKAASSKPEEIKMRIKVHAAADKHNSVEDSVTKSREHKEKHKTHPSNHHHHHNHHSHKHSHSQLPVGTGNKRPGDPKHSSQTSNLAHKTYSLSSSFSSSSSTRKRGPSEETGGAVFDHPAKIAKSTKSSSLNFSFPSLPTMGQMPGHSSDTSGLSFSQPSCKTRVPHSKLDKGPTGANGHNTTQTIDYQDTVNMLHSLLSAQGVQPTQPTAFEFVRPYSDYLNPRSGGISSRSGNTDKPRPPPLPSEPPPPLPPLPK

Structure (SMILES) | inhibition at 0.01 µM [%] | inhibition at 0.1 µM [%]
COc1cc(F)ccc1-c1cc(NC(=O)NC2CCC(NCCC(F)(F)F)CC2)ncc1Cl (centres unmarked) [Example 26, 1-(5-chloro-4-(4-fluoro-2-methoxyphenyl)pyridin-2-yl)-3-((1r,4r)-4-((3,3,3-trifluoropropyl)amino)cyclohexyl)urea] | 39.3 | 82.5
NC1CCC(NC(=O)Nc2cc(-c3ccc(F)c4ccoc34)ccn2)CC1 (centres unmarked) [Example 8, 1-((1r, 4r)-4-aminocyclohexyl)-3-(4-(4-fluoro-benzofuran-7-yl)pyridin-2-yl) urea] | 23.1 | 61.3
COc1cc(F)ccc1-c1ccnc(NC(=O)NC2CCC(NC(C)=O)CC2)c1 (centres unmarked) [Example 4, N-((1r,4r)-4-(3-(4-(4-fluoro-2-methoxyphenyl)pyridin-2-yl)ureido)cyclohexyl)acetamide] | 45.1 | 93.2
CC(=O)NC1CCC(NC(=O)Nc2cc(-c3cnn4c3CCC4)c(Cl)cn2)CC1 (centres unmarked) [Example 84, N-((1r,4r)-4-(3-(5-chloro-4-(5,6-dihydro-4H-pyrrolo[1,2-b]pyrazol-3-yl)pyridin-2-yl)ureido)cyclohexyl)acetamide] | 39.5 | 66.3
CN(C)C1CCC(NC(=O)Nc2cc(-c3cnn4c3CC(C)(C)C4)c(Cl)cn2)CC1 (centres unmarked) [Example 89, 1-(5-chloro-4-(5,5-dimethyl-5,6-dihydro-4H-pyrrolo[1,2-b]pyrazol-3-yl)pyridin-2-yl)-3-((1r,4r)-4-(dimethylamino)cyclohexyl)urea] | 63.7 | 92.7
[2H]C([2H])([2H])C(=O)NC1CCC(NC(=O)Nc2cc(-c3cnn4c3CC(C)(C)C4)c(Cl)cn2)CC1 (centres unmarked) [Example 54, N-((1r,4r)-4-(3-(5-chloro-4-(5,5-dimethyl-5,6-dihydro-4H-pyrrolo[1,2-b]pyrazol-3-yl)pyridin-2-yl)ureido)cyclohexyl)acetamide-2,2,2-d3] | 70.8 | 97.4
COCC(C)NC1CCC(NC(=O)Nc2cc(-c3ccc(F)cc3OC)c(Cl)cn2)CC1 (centres unmarked) [Example 21, 1-(5-chloro-4-(4-fluoro-2-methoxyphenyl)pyridin-2-yl)-3-((1r,4r)-4-((1-methoxypropan-2-yl)amino)cyclohexyl)urea] | 45.2 | 91
COc1cc(F)ccc1-c1cc(NC(=O)NC2CCC(NC3CCOC3)CC2)ncc1Cl (centres unmarked) [Example 25, 1-(5-chloro-4-(4-fluoro-2-methoxyphenyl)pyridin-2-yl)-3-((1r,4r)-4-((tetrahydrofuran-3-yl)amino)cyclohexyl)urea] | 28.7 | 61.2
CC1(C)Cc2c(-c3cc(NC(=O)NC4CCC(O)CC4)ncc3Cl)cnn2C1 (centres unmarked) [Example 45, 1-(5-chloro-4-(5,5-dimethyl-5,6-dihydro-4H-pyrrolo[1,2-b]pyrazol-3-yl)pyridin-2-yl)-3-((1r,4r)-4-hydroxycyclohexyl)urea] | 48.9 | 94.3
CNC1CCC(NC(=O)Nc2cc(-c3cnn4c3CC(C)(C)C4)c(Cl)cn2)CC1 (centres unmarked) [Example 88, 1-(5-chloro-4-(5,5-dimethyl-5,6-dihydro-4H-pyrrolo[1,2-b]pyrazol-3-yl)pyridin-2-yl)-3-((1r,4r)-4-(methylamino)cyclohexyl)urea] | 55.7 | 94.2
CC1(C)Cc2c(-c3cc(NC(=O)N[C@@H]4CC[C@@H](N)C4)ncc3Cl)cnn2C1 [Example 73, 1-((1S,3S)-3-aminocyclopentyl)-3-(5-chloro-4-(5,5-dimethyl-5,6-dihydro-4H-pyrrole[1,2-b]pyrazole-3-yl)pyridin-2-yl)urea] | 70 | 86
COCCNC1CCC(NC(=O)Nc2cc(-c3cnn4c3CC(C)(C)C4)ccn2)CC1 (centres unmarked) [Example 17, 1-(4-(5,5-dimethyl-5,6-dihydro-4H-pyrrolo[1,2-b]pyrazol-3-yl)pyridin-2-yl)-3-((1r,4r)-4-((2-methoxyethyl)amino)cyclohexyl)urea] | 68.2 | 90.2
CC1(C)Cc2c(-c3cc(NC(=O)NCCCN)ncc3Cl)cnn2C1 [Example 72, 1-(3-aminopropyl)-3-(5-chloro-4-(5,5-dimethyl-5,6-dihydro-4H-pyrrolo [1,2-b]pyrazol-3-yl)pyridin-2-yl)urea] | 45 | 69
CC(=O)NC1CCC(NC(=O)Nc2cc(-c3cnn4c3COCC4)c(Cl)cn2)CC1 (centres unmarked) [Example 82, N-((1r,4r)-4-(3-(5-chloro-4-(6,7-dihydro-4H-pyrazolo[5,1-c][1,4]oxazine-3-yl)pyridin-2-yl)ureido)cyclohexyl)acetamide] | 38 | 79.2

Now from value to compound:

inhibition at 0.01 µM [%] | inhibition at 0.1 µM [%] | Structure (SMILES)
43.8 | 75.3 | CC(=O)NC1CCC(NC(=O)Nc2cc(-n3cnc(C4CC4)c3)c(Cl)cn2)CC1 (centres unmarked) [Example 87, N-((1r,4r)-4-(3-(5-chloro-4-(4-cyclopropyl-1H-imidazol-1-yl)pyridin-2-yl)ureido)cyclohexyl)acetamide]
19.4 | 57 | COCCNC1CCC(NC(=O)Nc2cc(-c3ccc(F)cc3OC)c(C)cn2)CC1 (centres unmarked) [Example 29, 1-(4-(4-fluoro-2-methoxyphenyl)-5-methylpyridin-2-yl)-3-((1r,4r)-4-((2-methoxyethyl)amino)cyclohexyl) urea]
37.8 | 73.1 | COc1cc(F)ccc1-c1cc(NC(=O)NC2CCC(NC3CC3)CC2)ncc1Cl (centres unmarked) [Example 24, 1-(5-chloro-4-(4-fluoro-2-methoxyphenyl)pyridin-2-yl)-3-((1r,4r)-4-(cyclopropylamino)cyclohexyl)urea]
24.7 | 93.4 | COCCNC1CCC(NC(=O)Nc2cc(-c3ccc(F)cc3Cl)ccn2)CC1 (centres unmarked) [Example 11, 1-(4-(2-chloro-4-fluorophenyl)pyridin-2-yl)-3-((1r,4r)-4-((2-methoxyethyl)amino)cyclohexyl)urea]
57.1 | 87.4 | COCCNC1CCC(NC(=O)Nc2cc(-c3ccc(F)cc3OC)c(Cl)cn2)CC1 (centres unmarked) [Example 19, 1-(5-chloro-4-(4-fluoro-2-methoxyphenyl)pyridin-2-yl)-3-((1r,4r)-4-((2-methoxyethyl)amino)cyclohexyl)urea]
72 | 62 | CCNC1CCC(NC(=O)Nc2cc(-c3cnn4c3CC(C)(C)C4)c(Cl)cn2)CC1 (centres unmarked) [Example 59, 1-(5-chloro-4-(5,5-dimethyl-5,6-dihydro-4H-pyrrolo[1,2-b]pyrazol-3-yl)pyridin-2-yl)-3-((1r,4r)-4-(ethylamino)cyclohexyl)urea]
58.3 | 85.1 | CC1(C)Cc2c(-c3cc(NC(=O)NC4CCC(NCCF)CC4)ncc3Cl)cnn2C1 (centres unmarked) [Example 61, 1-(5-chloro-4-(5,5-dimethyl-5,6-dihydro-4H-pyrrolo[1,2-b]pyrazol-3-yl)pyridin-2-yl)-3-((1r,4r)-4-((2-fluoroethyl)amino)cyclohexyl)urea]
49 | 87.3 | CC(C)NC1CCC(NC(=O)Nc2cc(-c3cnn4c3CC(C)(C)C4)c(Cl)cn2)CC1 (centres unmarked) [Example 60, 1-(5-chloro-4-(5,5-dimethyl-5,6-dihydro-4H-pyrrolo[1,2-b]pyrazol-3-yl)pyridin-2-yl)-3-((1r,4r)-4-(isopropylamino)cyclohexyl)urea]
7 | 54 | COCCNCCCNC(=O)Nc1cc(-c2ccc(F)cc2OC)ccn1 [Example 34, 1-(4-(4-fluoro-2-methoxyphenyl)pyridin-2-yl)-3-(3-((2-methoxyethyl)amino)propyl)urea]
58.9 | 93.7 | CC1(C)Cc2c(-c3cc(NC(=O)NC4CCC(N5CCOCC5)CC4)ncc3Cl)cnn2C1 (centres unmarked) [Example 92, 1-(5-chloro-4-(5,5-dimethyl-5,6-dihydro-4H-pyrrolo[1,2-b]pyrazol-3-yl)pyridin-2-yl)-3-((1r, 4r)-4-morpholinylcyclohexyl)urea]
40 | 83.7 | CC1(C)Cc2c(-c3cc(NC(=O)NC4CCCC(N)CC4)ncc3Cl)cnn2C1 (centres unmarked) [Example 70, 1-(4-aminocycloheptyl)-3-(5-chloro-4-(5,5-dimethyl-5,6-dihydro-4H-pyrrolo[1,2-b]pyrazole-3-yl)pyridin-2-yl)urea]
46.2 | 88.2 | COc1cc(F)c(F)cc1-c1ccnc(NC(=O)NC2CCC(N)CC2)c1 (centres unmarked) [Example 5, 1-((1r,4r)-4-aminocyclohexyl)-3-(4-(4,5-difluoro-2-methoxyphenyl)pyridin-2-yl)urea]
10 | 60 | COc1cc(F)ccc1-c1ccnc(NC(=O)NC2CCCNCC2)c1 (centres unmarked) [Example 37, 1-(azepan-4-yl)-3-(4-(4-fluoro-2-methoxyphenyl)pyridin-2-yl)urea]
20.7 | 51.3 | COc1cc(F)ccc1-c1cc(NC(=O)NC2CCC(NC(C)=O)CC2)ncc1C (centres unmarked) [Example 31, N-((1r,4r)-4-(3-(5-methyl-4-(4-fluoro-2-methoxyphenyl)pyridin-2-yl)ureido)cyclohexyl)acetamide]
